Test results reported in publication PMC4686643 (Frontiers in Molecular Neuroscience, 2015).
Read-outs that look alike come from different tables or passages of the source. Peptide text beside a SMILES is read from it. * marks the point of attachment. Cbz = O=C(OCc1ccccc1)*

Key:
[1] = test system: GlyR α1 T162M protein in HEK293 cells; experiment: Protein degradation analysis on whole cell lysates (Western blot) with proteasome or lysosome inhibitors; assay type: cell-based, human; settings: for GlyR protein level after lysosomal block: leupeptin 200 μg/mL
Method: (§1) HEK293 cells transiently expressing GlyR α1 wt or α1 variants were incubated under standard growth conditions with proteasome or lysosome inhibitors for specific time periods (all inhibitors have been obtained from Sigma-Aldrich, St. Louis, MO, USA). Cells were incubated with 1 μM of MG132 for 1, 2, and 4 h. The lysosome inhibitor leupeptin (200 μg/mL) was incubated for 6, 12, and 24 h together with the transfected cells.
(§2) At each time point, media was aspirated and cells were washed twice with PBS followed by incubation with CytoBuster Protein Extraction Reagent (Merck Millipore, Darmstadt, Germany) supplemented with protease inhibitor for 5 min at room temperature. The resulting cell suspension was centrifuged for 5 min at 16.000 g and 4°C resulting in a supernatant containing solubilized proteins.
(§3) Western Blot Analysis—For SDS-PAGE, 11% polyacrylamide gels were freshly prepared, followed by Western blot on nitrocellulose membranes (GE Healthcare, Freiburg, Germany). Membranes were blocked for 1 h with 5% BSA in TBS-T (TBS with 1% Tween 20). Primary antibodies were incubated overnight at 4°C. GlyR α1 wt and GlyR mutants were detected with the pan-α antibody MAb4a (Synaptic Systems, Göttingen, Germany), recognizing an epitope in the N-terminus of the GlyRs (residues 96–105). In biotinylation experiments, cadherin was chosen as loading control detected by the pan-Cadherin antibody (Cell Signaling Technology, Danvers, MA, USA). For lysate analysis, GAPDH served as a loading control (Calbiochem, Darmstadt, Germany). Signals were detected using the ECLplus system (GE Healthcare, Freiburg, Germany).

[2] = test system: GlyR α1 wt protein in HEK293 cells; experiment: as above; assay type: cell-based, human
Method: as §1, §2, §3

GlyR α1 G160A = GlyR α1 G160A (Homo sapiens, UniProt P23415, G188A); settings: 100 μM glycine
GlyR α1 G160A, sequence (P23415 29-457 G188A): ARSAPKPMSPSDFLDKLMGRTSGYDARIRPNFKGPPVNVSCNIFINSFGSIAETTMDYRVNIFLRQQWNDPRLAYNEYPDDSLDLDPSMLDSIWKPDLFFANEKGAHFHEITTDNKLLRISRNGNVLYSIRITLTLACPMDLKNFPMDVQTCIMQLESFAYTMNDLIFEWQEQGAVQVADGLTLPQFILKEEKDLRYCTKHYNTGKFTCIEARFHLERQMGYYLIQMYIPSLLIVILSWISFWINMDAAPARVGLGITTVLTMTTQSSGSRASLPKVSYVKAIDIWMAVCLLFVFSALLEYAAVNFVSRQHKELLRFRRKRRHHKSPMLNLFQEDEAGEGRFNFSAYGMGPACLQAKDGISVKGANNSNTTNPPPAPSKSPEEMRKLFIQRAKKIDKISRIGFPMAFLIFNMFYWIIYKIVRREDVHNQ
Method: (§4) HEK293 cells were transiently transfected using a modified calcium-phosphate precipitation method, were a mixture of plasmid DNA, CaCl2, and 2x HBS buffer (50 mM HEPES, 12 mM glucose, 10 mM KCl, 280 mM NaCl, 1.5 mM Na2HPO4) was applied onto the cells.
(§5) Maximal current amplifications (Imax) were measured by the patch clamp technique in a whole-cell configuration mode. Current signals were amplified with an EPC-9 amplifier (HEKA, Lambrecht, Germany). […] The extracellular buffer consisted of 137 mM NaCl, 5.4 mM KCl, 1.8 mM CaCl2, 1 mM MgCl2, […], 10 mM HEPES, with a pH adjusted to 7.4 with NaOH. The internal buffer was 120 mM CsCl, 20 mM N(Et)4Cl, 1 mM CaCl2, 3 mM MgCl2, 11 mM EGTA, 10 mM HEPES with a pH adjusted to 7.4 with CsOH. Recording pipettes were fabricated from borosilicate capillaries with an open resistance of about 4 MΩ. Current responses were measured at a holding potential of −60 mV. All experiments were carried out at room temperature. Error bars refer to S.E.M. values.

GlyR α1 G160R = GlyR α1 G160R (Homo sapiens, UniProt P23415, G188R); settings: 100 μM glycine
GlyR α1 G160R, sequence (P23415 29-457 G188R): as the sequence (P23415 29-457 G188A) above, with A160R counted along it
Method: as §4, §5

GlyR α1 G160S = GlyR α1 G160S (Homo sapiens, UniProt P23415, G188S); settings: 100 μM glycine
GlyR α1 G160S, sequence (P23415 29-457 G188S): as the sequence (P23415 29-457 G188A) above, with A160S counted along it
Method: as §4, §5

GlyR α1 T162 mutants = settings: glycine 3–10 mM
Method: as §4, §5

GlyR α1 T162A = GlyR α1 T162A (Homo sapiens, UniProt P23415, T190A); settings: 100 μM glycine
GlyR α1 T162A, sequence (P23415 29-457 T190A): as the sequence (P23415 29-457 G188A) above, with A160G, T162A counted along it
Method: as §4, §5

GlyR α1 T162D = GlyR α1 T162D (Homo sapiens, UniProt P23415, T190D)
GlyR α1 T162D, sequence (P23415 29-457 T190D): as the sequence (P23415 29-457 G188A) above, with A160G, T162D counted along it
Method: as §4, §5

GlyR α1 T162M = GlyR α1 T162M (Homo sapiens, UniProt P23415, T190M); settings: 100 μM glycine
GlyR α1 T162M, sequence (P23415 29-457 T190M): as the sequence (P23415 29-457 G188A) above, with A160G, T162M counted along it
Method: as §4, §5

GlyR α1 T162N = GlyR α1 T162N (Homo sapiens, UniProt P23415, T190N); settings: 100 μM glycine
GlyR α1 T162N, sequence (P23415 29-457 T190N): as the sequence (P23415 29-457 G188A) above, with A160G, T162N counted along it
Method: as §4, §5

GlyR α1 T162P = GlyR α1 T162P (Homo sapiens, UniProt P23415, T190P); settings: 100 μM glycine
GlyR α1 T162P, sequence (P23415 29-457 T190P): as the sequence (P23415 29-457 G188A) above, with A160G, T162P counted along it
Method: as §4, §5

GlyR α1 wt = GlyR α1 wt (Homo sapiens, UniProt P23415); settings: 100 μM glycine
GlyR α1 wt, sequence (P23415 29-457): as the sequence (P23415 29-457 G188A) above, with A160G counted along it
Method: as §4, §5

Structure (SMILES): CC(C)C[C@@H](C=O)NC(=O)[C@H](CC(C)C)NC(=O)[C@H](CC(C)C)NC(=O)OCc1ccccc1 [MG132] (Cbz-Leu-Leu-Leu-aldehyde)
- GlyR protein level after proteasomal block ([1]; 1 μM MG132, 2 h, compared to wt): significant increase
- GlyR protein level after proteasomal block ([2]; 1 μM MG132, 2 h): not affected

Structure (SMILES): NCC(=O)O [glycine]
- Irel current, % of the wt current (GlyR α1 G160A; G160A): 92 ± 12%
- Imax ± SEM (GlyR α1 G160A; α1 G160A): 1453 ± 197 pA
- Irel current, % of the wt current (GlyR α1 G160R; G160R): 69 ± 10%
- Imax ± SEM (GlyR α1 G160R; α1 G160R): 1089 ± 167 pA
- Irel current, % of the wt current (GlyR α1 G160S; G160S): 68 ± 22%
- Imax ± SEM (GlyR α1 G160S; α1 G160S): 1061 ± 359 pA
- functionality compared to wt receptors (GlyR α1 T162 mutants): indistinguishable from wt receptors
- Irel current, % of maximum current of wt (GlyR α1 T162A; T162A): 4 ± 1%
- Imax ± SEM (GlyR α1 T162A; α1 T162A): 148 ± 45 pA
- Irel current, % of wt currents (GlyR α1 T162D; T162D, 100 μM glycine, measured in two out of five cells): less than 1%
- whole cell maximal currents compared to wt (GlyR α1 T162D; T162D, saturating glycine 10 mM): indistinguishable from GlyR α1 wt
- Imax ± SEM (GlyR α1 T162D; α1 T162D, 100 μM glycine): 10 ± 6 pA
- Irel current, % of I100μM compared to wt (GlyR α1 T162M; T162M): 11 ± 5%
- Imax ± SEM (GlyR α1 T162M; α1 T162M): 309 ± 154 pA
- Irel current, % of the wt current (GlyR α1 T162N; T162N): 13 ± 3%
- reduction of the wt response (GlyR α1 T162N; T162N): 85%
- Imax ± SEM (GlyR α1 T162N; α1 T162N): 447 ± 96 pA
- Irel current, % of the wt current (GlyR α1 T162P; T162P): 29 ± 10%
- Imax ± SEM (GlyR α1 T162P; α1 T162P): 832 ± 300 pA
- Imax ± SEM (GlyR α1 wt; wt control of the G160 series): 1571 ± 260 pA
- Imax ± SEM (GlyR α1 wt; wt control of the T162 series): 2916 ± 371 pA

Structure (SMILES): CC(=O)N[C@@H](CC(C)C)C(=O)N[C@@H](CC(C)C)C(=O)N[C@H](C=O)CCCNC(=N)N [leupeptin]
- GlyR protein level after lysosomal block ([1]; 6 h): did not show any differences
- GlyR protein level after lysosomal block ([1]; 12 h, in contrast to wt): reduced protein levels
- GlyR protein level after lysosomal block ([2]; leupeptin 200 μg/mL, 12 h): accumulations
